The text below walks through data of US12643867B2, “Compositions and uses thereof” (University of Virginia Patent Foundation, priority 2017, dated 2026).

Structures are written as SMILES.

In data set [1] the test system is H82 cells. Briefly: WST-1 Cell Proliferation Assay. The data set is classed as cell-based. To be noted: for cell viability (WST-1), words: ritanserin, ketanserin 5-50 μM, staurosporine 1 μM. The procedure: (§1) WST-1 Cell Proliferation Assays. Tumor cells were plated in transparent tissue-culture treated 96-well plates at a density of 100,000 cells/mL (A549, H1650) or 200,000 cells/mL (H82) in a volume of 100 μL per well. Cells were treated with dimethyl sulfoxide (DMSO) vehicle or inhibitors dissolved in DMSO at the indicated concentrations (final DMSO concentration of 0.5%). Cells were allowed to grow for indicated times at 37° C. under 5% CO2. Afterwards, equal parts of WST-1 developer reagent and electron mediator solution were mixed and 10 μL of the resulting solution (‘WST-1 reagent’) were added to each well. Plates were shaken in an orbital shaker for 60 s and then returned to the incubator for two hrs. Plates were again shaken followed measurement of absorbance at 450 nm. Data were normalized to DMSO-treated wells and significance values determined with one-way ANOVA.
Background: Tetrazolium dyes change colour on reduction, which living cells bring about.

Data set [2] concerns H1650 cells. The data set is described as follows: WST-1 Cell Proliferation Assay. The format is cell-based. The settings on record: for cell viability (WST-1), words: ritanserin, ketanserin 5-50 μM, staurosporine 1 μM. The protocol:
as §1

The test system of data set [3] is A549 cells. Briefly: WST-1 Cell Proliferation Assay. The format is cell-based. To be noted: for cell viability (WST-1), words: ritanserin, ketanserin 5-50 μM, staurosporine 1 μM. The protocol: as §1
In data set [4] the test system is H82 cells. The data set is described as follows: CaspaseGlo 3/7 assay. The settings on record: 24 hours. The format is cell-based. The protocol:
(§2) Caspase Glo Assays. Assays were performed as directed by the manufacturer (Promega). Briefly, tumor cells were plated in black tissue-culture treated transparent-bottom 96 well plates at a density of 200,000 cells/mL (A549, H1650) or 400,000 cells/mL (H82) in a volume of 50 μL/well. Cells were treated with inhibitors at the indicated concentrations (final DMSO concentration of 0.5%) for 24 hrs at 37° C. under 5% CO2. Afterwards, 50 μL of the prepared CaspaseGlo reagent was added to each well. The reaction was allowed to proceed at 37° C. under 5% CO2 for 1 hr, at which point the cells were shaken in an orbital shaker at 500 rpm for 60 s and then luminescence was read for each well. Data were normalized to DMSO-treated wells and significance values determined with one-way ANOVA.

In data set [5] the test system is H1650 cells. The data set is described as follows: CaspaseGlo 3/7 assay. The data set is classed as cell-based. The settings on record: 24 hours. The protocol: as §2
For data set [6], the system named is A549 cells. Briefly: CaspaseGlo 3/7 assay. The settings on record: 24 hours. The format is cell-based. The protocol:
as §2

Data set [7] has as its target T1, recombinant RAF1 (Homo sapiens, UniProt P04049).
T1 construct: expressed in transfected cells; host or cells: HEK293T
The data set is described as follows: RAF1 (CRAF) substrate assay. The format is biochemical. To be noted: RAF1-HEK293T proteomes. The protocol: Given the potential for indirect inhibitory effects in the competition studies in lysates, ritanserin activity was tested in a CRAF substrate assay. Ritanserin inhibition was measured against recombinant RAF1 using commercial substrate assays. […] RAF1 was overexpressed in HEK293T cells and measured recombinant RAF1 activity by comparing with non-transfected HEK293T (i.e. mock) proteomes.

For data set [8], the target named is T2, CRAF (Homo sapiens, UniProt P04049).
T2 construct: measure selectivity of compounds against native kinases detected in lung cancer proteomes; endogenous in cells; host or cells: H82 small cell lung cancer (and HEK293T) cell lysates; CRAF not detected in A549
T2 sequence (P04049 whole entry): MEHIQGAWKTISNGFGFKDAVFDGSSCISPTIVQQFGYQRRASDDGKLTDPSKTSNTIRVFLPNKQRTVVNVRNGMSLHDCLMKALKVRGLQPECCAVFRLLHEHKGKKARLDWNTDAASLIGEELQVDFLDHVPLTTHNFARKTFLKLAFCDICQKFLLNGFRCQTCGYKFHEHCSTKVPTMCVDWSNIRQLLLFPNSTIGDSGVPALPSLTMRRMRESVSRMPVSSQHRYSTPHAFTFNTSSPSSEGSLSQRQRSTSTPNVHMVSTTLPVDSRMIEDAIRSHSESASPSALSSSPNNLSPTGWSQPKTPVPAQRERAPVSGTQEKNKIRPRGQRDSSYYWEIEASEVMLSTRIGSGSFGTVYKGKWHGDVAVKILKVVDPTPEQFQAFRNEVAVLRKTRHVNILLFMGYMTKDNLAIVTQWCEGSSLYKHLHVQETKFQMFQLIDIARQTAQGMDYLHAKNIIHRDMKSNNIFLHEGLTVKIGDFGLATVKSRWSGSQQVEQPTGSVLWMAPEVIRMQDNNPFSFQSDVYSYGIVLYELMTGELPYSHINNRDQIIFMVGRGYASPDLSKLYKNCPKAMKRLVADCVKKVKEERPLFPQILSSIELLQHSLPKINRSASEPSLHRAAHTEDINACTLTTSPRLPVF
Briefly: ATP acyl phosphate chemical proteomics in lung cancer cell proteomes. The data set is classed as binding. The settings on record: for CRAF ATP acyl-phosphate labeling response (words, FIG. 20): H82 and HEK293T lysates, 100 μM Rit, 1 mM RF001. The protocol: LC-MS analysis of SILAC samples using ATP acyl phosphates. Quantitative chemoproteomics was performed as previously described (Franks et al., 2017; McCloud et al., 2018).
Computational Methods. Data for A549 and H82 cell lines were searched with IP2 and manually validated using the methods previously described (Franks et al., 2017). Data for Desthiobiotin-tagged ATP acyl-phosphate probes and ATP competitive peptides were compared and clustered. Ritanserin and ketanserin inhibition profiles were compared using SILAC ratios and normalized to DMSO.
Based on previous chemical proteomics (Franks, 2017), it was hypothesized that ritanserin is functioning as a kinase inhibitor to mediate cytotoxicity in the lung cancer cell models. […] For these studies, NSCLC and SCLC cells were cultured in isotopically light and heavy amino acids to enable quantitative chemical proteomics (Chang. 2015) by stable isotope labeling with amino acids in cell culture (SILAC, FIG. 17A). […] After probe labeling, light and heavy proteomes were combined, digested with trypsin protease, and desthiobiotin-modified peptides enriched by avidin affinity chromatography and analyzed by LC-MS/MS to identify and quantify isotopically tagged active-site peptides from native kinases as previously described(Franks, 2017) (FIG. 17A).
To further confirm that ritanserin is a CRAF inhibitor, a targeted parallel reaction monitoring method (PRM) was developed to evaluate compound activity against CRAF and other members of the RAF family (ARAF and BRAF). Targeted PRM was needed because of the low abundance of CRAF compared with ARAF and BRAF). […] Ritanserin activity was also measured against RAF kinases in A549 proteomes using the targeted LC-MS method. […] The data further support previous findings that this RAF member is enriched in SCLC cells (REF).

The test system of data set [9] is Bone Marrow Derived Macrophages (BMDMs), noncancerous primary cells. Briefly: WST-1 Cell Proliferation Assay. The data set is classed as cell-based. To be noted: ritanserin highest concentration tested 50 μM; staurosporine 1 μM.

T1 sequence (P04049 whole entry): as above

As for `O=C(c1ccc(F)cc1)C1CCN(CCn2c(=O)[nH]c3ccccc3c2=O)CC1` [Ketanserin], the “cell viability (WST-1), words” value in [1], in [2] and in data set [3] was “lack of activity” each time. The “caspase 3/7 activity” value in data set [4], in data set [5] and in data set [6] was “did not induce these effects” throughout. For the same compound, the “blockade of recombinant RAF1 activity” value in data set [7] was “not ketanserin”.
As to `Fc1ccc(C(=C2CCNCC2)c2ccc(F)cc2)cc1` [RF001, 4-(Bis(4-fluorophenyl)methylene) piperidine], the “CRAF ATP acyl-phosphate labeling response (words, FIG. 20)” value in data set [8] is reported as “inactivates CRAF”.
As to `Cc1nc2sccn2c(=O)c1CCN1CCC(=C(c2ccc(F)cc2)c2ccc(F)cc2)CC1` [Ritanserin], the “cell death (WST-1)” value in data set [1] (5 μM, two days) is on record as around 50%; in [2] (5 μM, two days), 5-15%; in data set [3] (5 μM, two days), 5-15%. The “cell death after 1 day (WST-1)” value was above 50% in [1] (25 μM, 1 day); above 50% in [2] (25 μM, 1 day); above 50% in [3] (25 μM, 1 day). The inhibition at 25 µM in data set [1] (Homo sapiens, NCI-H82, 48 h, 25 μM, two days, read-out: inhibition of cell growth (WST-1)) was above 70%; in data set [2] (Homo sapiens, NCI-H1650, 48 h, 25 μM, two days, read-out: inhibition of cell growth (WST-1)) it was above 70%; in data set [3] (Homo sapiens, A549, 48 h, 25 μM, two days, read-out: inhibition of cell growth (WST-1)), above 70%. Besides, the “cell viability (WST-1), words” value in data set [1], in [2] and in data set [3] was “Concentration-dependent decreases in viability” throughout. Also, the “caspase 3/7 activity” value in [4] was “comparable activation of caspase 3/7 compared with staurosporine”; in [5], “comparable activation of caspase 3/7 compared with staurosporine”; in data set [6], “lower degree of activation”. For the same compound, in data set [9], the “cell killing of noncancerous primary cells (WST-1), words” value is “negligible cell killing”. In addition, the “kinase target by SILAC ratio criterion” value in data set [8] (100 μM, A549 and H82 proteomes) is reported as “most potent targets”. In [8], the “CRAF ATP acyl-phosphate labeling response (words, FIG. 20)” value was “inactivates CRAF”. Also, in [8] (H82 proteomes), the “activity by targeted PRM” value is reported as “potent activity against CRAF”. For the same compound, the “blockade of recombinant RAF1 activity” value in data set [7] is “concentrations dependent blockade of recombinant RAF1 activity”.

As a reminder, the inhibition is how much of the control response was suppressed.
